Assays:
memapsin 2 = memapsin 2 (Homo sapiens, UniProt P56817); experiment: Inhibition of memapsin 2 beta-secretase activity toward fluorogenic substrate FS-2; assay type: biochemical; settings: pH 4, 37° C., 20 minutes pre-incubation, read-out: M2 Ki
Description: Potency of compounds were determined by measurement of their inhibition of memapsin 2 activity toward a fluorescent substrate. […] Briefly, assays were performed at pH 4, 37° C., by pre-incubation of memapsin 2 enzyme with compound for 20 minutes. Activity measure was initiated by addition of a fluorogenic substrate FS-2 (Bachem Americas, Torrance, Calif.). Fluorescent signal increase over time was measured as a rate of hydrolysis of the peptide substrate.

Aβ production = experiment: Cellular Aβ IC50 determination (Aβ40 sandwich ELISA); assay type: cell-based; settings: Cricetulus griseus, Chinese hamster ovary cells over-expressing human APP695 with London and Swedish mutations, 24 h
Description: The potency of compounds against memapsin 2 activity was determined in a cellular assay of Aβ production. […] Chinese hamster ovary cells that over-express human APP695 with the London and Swedish mutations were seeded in multi-well plates at 10% confluency. Compounds were dissolved in DMSO to concentrations near 1 mM, and diluted into culture media to a final concentration near 4 μM (final 0.4% DMSO). Compounds were diluted serially and applied to cells in multi-well plates 48 h after seeding. Incubation was continued in 5% CO2 at 37 degrees C. for 24 h. Aliquots were removed and assayed for Aβ40 content using a sandwich ELISA (BioSource International). Amount of Aβ40 over the range of concentration of compounds, relative to control incubations, were fit to a 4-parameter IC50 model.

Sequence of memapsin 2 (P56817 46-501): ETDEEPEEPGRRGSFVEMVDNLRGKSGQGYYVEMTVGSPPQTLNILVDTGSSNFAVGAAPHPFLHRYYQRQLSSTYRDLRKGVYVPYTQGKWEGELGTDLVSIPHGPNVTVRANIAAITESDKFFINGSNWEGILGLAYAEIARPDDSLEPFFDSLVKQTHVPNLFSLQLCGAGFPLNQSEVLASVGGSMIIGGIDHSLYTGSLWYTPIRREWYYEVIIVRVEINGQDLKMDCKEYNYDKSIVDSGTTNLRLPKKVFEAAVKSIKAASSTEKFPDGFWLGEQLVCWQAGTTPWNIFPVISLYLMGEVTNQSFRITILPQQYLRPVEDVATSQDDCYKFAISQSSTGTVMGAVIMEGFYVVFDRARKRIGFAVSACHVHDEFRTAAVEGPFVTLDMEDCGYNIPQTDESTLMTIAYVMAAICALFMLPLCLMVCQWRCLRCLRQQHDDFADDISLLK

Row | Compound | Ki (memapsin 2) [nM] | IC50 (Aβ production) [nM]
1 | CC(C)CNC(=O)C(NC(=O)C(C)CC(O)C(CC(C)C)NC(=O)c1cc(OCC2CNC(=O)O2)cc(C(=O)NC(C)c2ccccc2)c1)C(C)C (stereo not drawn) [N1-(5-hydroxy-8-(1-(isobutylamino)-3-methyl-1-oxobutan-2-ylamino)-2,7-dimethyl-8-oxooctan-4-yl)-5-((2-oxooxazolidin-5-yl)methoxy)-N3-(1-phenylethyl)isophthalamide] | < 405 | 
2 | Cc1nc(CN(C)C(=O)c2cccc(C(=O)NC(CC(C)C)C(O)CC(C)C(=O)NC(C(=O)NCC(C)C)C(C)C)c2)co1 (stereo not drawn) [N1-(5-hydroxy-8-(1-(isobutylamino)-3-methyl-1-oxobutan-2-ylamino)-2,7-dimethyl-8-oxooctan-4-yl)-N3-methyl-N3-((2-methyloxazol-4-yl)methyl)isophthalamide] | < 405 | > 20000
3 | Cc1ccc(CN(C)C(=O)c2cccc(C(=O)NC(CC(C)C)C(O)CC(C)C(=O)NC(C(=O)NCC(C)C)C(C)C)c2)o1 (stereo not drawn) [N1-(5-hydroxy-8-(1-(isobutylamino)-3-methyl-1-oxobutan-2-ylamino)-2,7-dimethyl-8-oxooctan-4-yl)-N3-methyl-N3-((5-methylfuran-2-yl)methyl)isophthalamide] | < 405 | > 20000
4 | Cc1nc(CN(C)C(=O)c2cccc(C(=O)NC(CC(C)C)C(O)CC(C)C(=O)NC(C(=O)NCC(C)C)C(C)C)c2)cs1 (stereo not drawn) [N1-(5-hydroxy-8-(1-(isobutylamino)-3-methyl-1-oxobutan-2-ylamino)-2,7-dimethyl-8-oxooctan-4-yl)-N3-methyl-N3-((2-methylthiazol-4-yl)methyl)isophthalamide] | < 405 | 
5 | Cc1csc(CN(C)C(=O)c2cccc(C(=O)NC(CC(C)C)C(O)CC(C)C(=O)NC(C(=O)NCC(C)C)C(C)C)n2)n1 (stereo not drawn) [N2-(5-hydroxy-8-(1-(isobutylamino)-3-methyl-1-oxobutan-2-ylamino)-2,7-dimethyl-8-oxooctan-4-yl)-N6-methyl-N6-((4-methylthiazol-2-yl)methyl)pyridine-2,6-dicarboxamide] | < 405 | > 20000
6 | Cc1cc(C(=O)NC(CC(C)C)C(O)CC(C)C(=O)NC(C(=O)NCC(C)C)C(C)C)cc(C(=O)N(C)Cc2ccccn2)c1 (stereo not drawn) [N1-(5-hydroxy-8-(1-(isobutylamino)-3-methyl-1-oxobutan-2-ylamino)-2,7-dimethyl-8-oxooctan-4-yl)-N3,5-dimethyl-N3-(pyridin-2-ylmethyl)isophthalamide] | < 405 | > 20000
7 | CCCN(CCC)C(=O)c1cccc(C(=O)NC(CC(C)C)C(O)CC(C)C(=O)NCC(C)C)c1 (stereo not drawn) [N1-(5-hydroxy-8-(isobutylamino)-2,7-dimethyl-8-oxooctan-4-yl)-N3,N3-dipropylisophthalamide] | 2000 to 5000 | 
8 | CC(C)CNC(=O)C(NC(=O)C(C)CC(O)C(CC(C)C)NC(=O)c1cc(C(=O)N(C)Cc2ccncc2)cc(N(C)S(C)(=O)=O)c1)C(C)C (stereo not drawn) [N1-(5-hydroxy-8-(1-(isobutylamino)-3-methyl-1-oxobutan-2-ylamino)-2,7-dimethyl-8-oxooctan-4-yl)-N3-methyl-5-(N-methylmethylsulfonamido)-N3-(pyridin-4-ylmethyl)isophthalamide] | < 405 | > 20000
9 | Cc1cc(C(=O)NC(CC(C)C)C(O)CC(C)C(=O)NC(C(=O)NCC(C)C)C(C)C)cc(C(=O)N(C)Cc2cccnc2)c1 (stereo not drawn) [N1-(5-hydroxy-8-(1-(isobutylamino)-3-methyl-1-oxobutan-2-ylamino)-2,7-dimethyl-8-oxooctan-4-yl)-N3,5-dimethyl-N3-(pyridin-3-ylmethyl)isophthalamide] | < 405 | 10000 to 20000
10 | CC(C)CNC(=O)C(NC(=O)C(C)CC(O)C(CC(C)C)NC(=O)c1cc(C(=O)NC(C)c2ccccc2)cc(N(C)C(=O)OC2CCOC2)c1)C(C)C (stereo not drawn) [tetrahydrofuran-3-yl 3-(5-hydroxy-8-(1-(isobutylamino)-3-methyl-1-oxobutan-2-ylamino)-2,7-dimethyl-8-oxooctan-4-ylcarbamoyl)-5-(1-phenylethylcarbamoyl)phenyl(methyl)carbamate] | 405 to 2000 | > 20000
11 | CC(C)CC(NC(=O)c1cc(C(=O)NC(C)c2ccccc2)cc(N(C)S(C)(=O)=O)c1)C(O)CC(N=[N+]=[N-])C(=O)NC(C(=O)NC(C)C)C(C)C (stereo not drawn) [N1-(7-azido-5-hydroxy-8-(1-(isopropylamino)-3-methyl-1-oxobutan-2-ylamino)-2-methyl-8-oxooctan-4-yl)-5-(N-methylmethylsulfonamido)-N3-(1-phenylethyl)isophthalamide] | < 405 | < 5000
12 | CCN(Cc1ccncc1)C(=O)c1cncc(C(=O)NC(CC(C)C)C(O)CC(C)C(=O)NC(C(=O)NCC(C)C)C(C)C)c1 (stereo not drawn) [N3-ethyl-N5-(5-hydroxy-8-(1-(isobutylamino)-3-methyl-1-oxobutan-2-ylamino)-2,7-dimethyl-8-oxooctan-4-yl)-N3-(pyridin-4-ylmethyl)pyridine-3,5-dicarboxamide] | > 5000 | 
13 | CC(C)CNC(=O)C(NC(=O)C(C)CC(O)C(CC(C)C)NC(=O)c1cccc(C(=O)N(C)Cc2ccccc2)c1)C(C)C (stereo not drawn) [N1-benzyl-N3-(5-hydroxy-8-(1-(isobutylamino)-3-methyl-1-oxobutan-2-ylamino)-2,7-dimethyl-8-oxooctan-4-yl)-N1-methylisophthalamide] | < 405 | > 20000
14 | CC(C)CNC(=O)C(NC(=O)C(C)CC(O)C(CC(C)C)NC(=O)c1cccc(C(=O)N(C)Cc2cccc(O)c2)c1)C(C)C (stereo not drawn) [N1-(5-hydroxy-8-(1-(isobutylamino)-3-methyl-1-oxobutan-2-ylamino)-2,7-dimethyl-8-oxooctan-4-yl)-N3-(3-hydroxybenzyl)-N3-methylisophthalamide] | 405 to 2000 | > 20000
15 | CC(C)CC(NC(=O)c1cc(C(=O)NC(C)c2ccccc2)cc(N(C)S(C)(=O)=O)c1)C(O)CC(C)C(=O)NC(C(=O)NC(C)C)C(C)C (stereo not drawn) [N1-(5-hydroxy-8-(1-(isopropylamino)-3-methyl-1-oxobutan-2-ylamino)-2,7-dimethyl-8-oxooctan-4-yl)-5-(N-methylmethylsulfonamido)-N3-(1-phenylethyl)isophthalamide] |  | < 5000
16 | CC(C)CNC(=O)C(NC(=O)C(C)CC(O)C(CC(C)C)NC(=O)c1cc(OCC(O)CN=[N+]=[N-])cc(C(=O)NC(C)c2ccccc2)c1)C(C)C (stereo not drawn) [5-(3-azido-2-hydroxypropoxy)-N1-(5-hydroxy-8-(1-(isobutylamino)-3-methyl-1-oxobutan-2-ylamino)-2,7-dimethyl-8-oxooctan-4-yl)-N3-(1-phenylethyl)isophthalamide] | 405 to 2000 | 
17 | CC(C)CC(NC(=O)c1cc(C(=O)NC(C)c2ccccc2)cc(N(C)S(C)(=O)=O)c1)C(O)CC(NC(=O)OCc1ccccc1)C(=O)NC(C(=O)NC(C)C)C(C)C (stereo not drawn) [benzyl 4-hydroxy-1-(1-(isopropylamino)-3-methyl-1-oxobutan-2-ylamino)-7-methyl-5-(3-(N-methylmethylsulfonamido)-5-(1-phenylethylcarbamoyl)benzamido)-1-oxooctan-2-ylcarbamate] | 405 to 2000 | 
18 | Cc1csc(CN(C(=O)c2cccc(C(=O)NC(CC(C)C)C(O)CC(C)C(=O)NC(C(=O)NCC(C)C)C(C)C)c2)C(C)C)n1 (stereo not drawn) [N1-(5-hydroxy-8-(1-(isobutylamino)-3-methyl-1-oxobutan-2-ylamino)-2,7-dimethyl-8-oxooctan-4-yl)-N3-isopropyl-N3-((4-methylthiazol-2-yl)methyl)isophthalamide] | < 405 | 
19 | CCc1csc(CNC(=O)c2cc(C(=O)NC(CC(C)C)C(O)CC(C)C(=O)NC(C(=O)NCC(C)C)C(C)C)cc(N(C)S(C)(=O)=O)c2)n1 (stereo not drawn) [N1-((4-ethylthiazol-2-yl)methyl)-N3-(5-hydroxy-8-(1-(isobutylamino)-3-methyl-1-oxobutan-2-ylamino)-2,7-dimethyl-8-oxooctan-4-yl)-5-(N-methylmethylsulfonamido)isophthalamide] | < 405 | 
20 | COc1cccc(CNC(=O)CNC(=O)C(C)CC(O)C(CC(C)C)NC(=O)c2cc(C(=O)NC(C)c3ccccc3)cc(N(C)S(C)(=O)=O)c2)c1 (stereo not drawn) [N1-(5-hydroxy-8-(2-(3-methoxybenzylamino)-2-oxoethylamino)-2,7-dimethyl-8-oxooctan-4-yl)-5-(N-methylmethylsulfonamido)-N3-(1-phenylethyl)isophthalamide] | 405 to 2000 | 
21 | CCCN(CCC)C(=O)c1cncc(C(=O)NC(CC(C)C)C(O)CC(C)C(=O)NC(C(=O)NC(C)C)C(C)C)c1 (stereo not drawn) [N3-(5-hydroxy-8-(1-(isopropylamino)-3-methyl-1-oxobutan-2-ylamino)-2,7-dimethyl-8-oxooctan-4-yl)-N5,N5-dipropylpyridine-3,5-dicarboxamide] | < 405 | 
22 | CC(C)CC(NC(=O)c1cc(C(=O)NCc2ccccc2)cc(N(C)S(C)(=O)=O)c1)C(O)CC(C)C(=O)NC(C(=O)NC(C)C)C(C)C (stereo not drawn) [N1-benzyl-N3-(5-hydroxy-8-(1-(isopropylamino)-3-methyl-1-oxobutan-2-ylamino)-2,7-dimethyl-8-oxooctan-4-yl)-5-(N-methylmethylsulfonamido)isophthalamide] |  | 5000 to 10000
23 | CCCN(CCC)C(=O)c1cc(NC(=O)OC(C)(C)C)cc(C(=O)NC(CC(C)C)C(O)CC(OC)C(=O)NC(C(=O)NC(C)C)C(C)C)c1 (stereo not drawn) [tert-butyl 3-(dipropylcarbamoyl)-5-(5-hydroxy-8-(1-(isopropylamino)-3-methyl-1-oxobutan-2-ylamino)-7-methoxy-2-methyl-8-oxooctan-4-ylcarbamoyl)phenylcarbamate] | > 5000 | 
